Several values for one entry are separate records, joined by “and”; a condition that tells them apart may be missing. Equal values may be shown once.
Species on record: Rattus norvegicus
Assay: Open TG-GATES - Regimen: Single
Assay type: toxicity, organism-based, Sprague-Dawley
Set-up: regimen Single, gender Male, age 6 weeks
Conditions: in vivo, po, route gavage; for LIVER: tissue Liver
[1] = 0 mg/kg, 24 h, tissue Plasma, dose level Control
[2] = 1 mg/kg, 3 h, tissue Blood, dose level Low
[3] = 1 mg/kg, 3 h, tissue Kidney, dose level Low
[4] = 1 mg/kg, 3 h, tissue Plasma, dose level Low
[5] = 1 mg/kg, 6 h, tissue Blood, dose level Low

`COc1ccc2c(c1)c(CC(=O)O)c(C)n2C(=O)c1ccc(Cl)cc1` [INDOMETHACIN] was tested, and the LIVER (0 mg/kg, 24 h, dose level Control) was 10.4 g and 11.1 g, the A/G [1] was 2.1 and 1.6 and the ALP [1] was 1109.6 IU/L and 886.6 IU/L. The ALT [1] was 39.6 IU/L and 36.4 IU/L, the AST [1] was 68 IU/L and 72.6 IU/L and the BUN [1] was 18 mg/dL and 13.8 mg/dL. The CRE [1] was 0.5 mg/dL and 0.4 mg/dL, the Ca [1] was 10.5 mg/dL and 10.7 mg/dL and the Cl [1] was 105 meq/L and 102.8 meq/L. For the same molecule, the GLC [1] was 185.4 mg/dL and 187.8 mg/dL, the IP [1] was 8.8 mg/dL and 7.4 mg/dL and the K [1] was 5.7 meq/L and 4.3 meq/L. For the same molecule, the LDH [1] was 106 IU/L and 240.2 IU/L, the Na [1] was 138.8 meq/L and 140.6 meq/L and the PL [1] was 153.2 mg/dL and 145.8 mg/dL. For the same molecule, the RALB [1] was 4 g/dL and 3.4 g/dL, the TBIL [1] was 0.2 mg/dL and 0.1 mg/dL and the TC [1] was 83.2 mg/dL and 72.2 mg/dL. For the same molecule, the TG [1] was 84 mg/dL and 116 mg/dL, the TP [1] was 5.9 g/dL and 5.5 g/dL and the gamma-GTP [1] was 1.2 IU/L and 1.4 IU/L. The TERMINAL_BW (1 mg/kg, 3 h, dose level Low) was 199.2 g, the APTT [2] was 17.2 s and the Bas [2] was 0%. It also gave an Eos [2] of 0.6%, a Fbg [2] of 222.4 mg/dL and a Hb [2] of 13.3 g/dL. The Ht [2] was 40%, the Lym [2] was 81.2% and the MCH [2] was 21.8 pg. For the same molecule, the MCHC [2] was 33.1%, the MCV [2] was 65.7 fL and the Mono [2] was 8.6%. It also gave a Neu [2] of 9.8%, a PT [2] of 12.4 s and a Plat [2] of 99.5 x10_4/uL. For the same molecule, the RBC [2] was 610 x10_4/ul, the Ret [2] was 9.6% and the WBC [2] was 95.5 x10_2/uL. It also gave a KIDNEY_L [3] of 0.9 g, a KIDNEY_R [3] of 0.9 g and a KIDNEY_TOTAL [3] of 1.8 g. It also gave an LIVER (1 mg/kg, 3 h, dose level Low) of 9.5 g, an A/G [4] of 1.7 and an ALP [4] of 1062.4 IU/L. The ALT [4] was 37.4 IU/L, the AST [4] was 68.6 IU/L and the BUN [4] was 11.8 mg/dL. The CRE [4] was 0.5 mg/dL, the Ca [4] was 10.5 mg/dL and the Cl [4] was 105.6 meq/L. It also gave a DBIL [4] of 0.018 mg/dL, a GLC [4] of 187.8 mg/dL and an IP [4] of 9 mg/dL. It also gave a K [4] of 4.8 meq/L, an LDH [4] of 100 IU/L and a Na [4] of 137.4 meq/L. For the same molecule, the PL [4] was 130.4 mg/dL, the RALB [4] was 3.8 g/dL and the TBIL [4] was 0.3 mg/dL. It also gave a TC [4] of 75.6 mg/dL, a TG [4] of 41.8 mg/dL and a TP [4] of 6.1 g/dL. It also gave a gamma-GTP [4] of 1.6 IU/L, a TERMINAL_BW (1 mg/kg, 6 h, dose level Low) of 195.5 g and an APTT [5] of 16.7 s. For the same molecule, the Bas [5] was 0%, the Eos [5] was 0.6% and the Fbg [5] was 210.6 mg/dL. The Hb [5] was 13.6 g/dL, the Ht [5] was 41.1% and the Lym [5] was 78.8%. It also gave an MCH [5] of 21.8 pg and an MCHC [5] of 33.1%.

— ChEMBL document CHEMBL3885861, “Open TG-GATES”
